The values that follow come from PubChem BioAssay (NCI).

Holding throughout (assay): DTP human tumour cell line panel, 48 h
Test [1] concerns HCT-116 colon.
For test [2], the system named is K-562 leukemia.
The test system of test [3] is IGROV1 ovarian.
Test [4] has as its system HCC-2998 colon.
In test [5] the test system is NCI-H226 lung.
The subject of test [6] is MALME-3M melanoma.

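Method: 48-hour compound exposure of cells in 96-well plates, five concentrations, linear interpolation of endpoints. GI50 is the concentration that inhibits growth by half. At the TGI there is no net growth.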 A value given as a limit tells only on which side of the number the result lay.

In the case of `CCCCCc1c(CCCC)c(=O)[nH]c2cc(CNCC(OC)OC)ccc12`, the TGI in test [1] turned out to be 18.9 µM; in test [2], 5.63 µM; in test [3], 29.6 µM; in test [4], 7.62 µM; in test [5] it was 40.6 µM; in test [6] it was 7.83 µM.
Turning to `CN(C)CCCOC(=O)C(O)(Cc1ccccc1)C1CC1` (centres undefined), the concentration for total growth inhibition (TGI) in test [1], in test [2], in test [3], in test [4], in test [5] and in test [6] was greater than 100 µM in each case.
Consider `NS(=O)(=O)c1ccc(/C=C/c2cccc(O)c2)cc1`, for which the concentration for total growth inhibition (TGI) in test [1] was greater than 100 µM; in test [2] it was greater than 100 µM; in test [3], greater than 100 µM; in test [4] it was greater than 100 µM; in test [5], 74.3 µM; in test [6] it was greater than 100 µM. In addition, the figures for the GI50 in test [2], in test [3] and in test [5] were 43.4 µM, 30.2 µM and 25.8 µM, respectively.
Take `COc1ccc(-c2cn3c(n2)sc2cc(C)ccc23)cc1`: the TGI is greater than 100 µM in test [1]; greater than 100 µM in test [2]; 42.1 µM in test [3]; 69.6 µM in test [4]; 62.2 µM in test [5]; greater than 100 µM in test [6].
In the case of `CC(=O)Oc1ccc2c(c1)CC[C@@H]1C2[C@@H](O[N+](=O)[O-])C[C@@]2(C)C1CC[C@@H]2O` (some centres undefined), the TGI in test [1] is greater than 100 µM; in test [2] it was 72.1 µM; in test [3], greater than 100 µM; in test [4], 46.2 µM; in test [5], greater than 100 µM; in test [6], greater than 100 µM.
Regarding `COc1cc2[nH]c(-c3ccccc3)cc(=O)c2cc1OC`, the TGI in test [1] was greater than 49.7 µM; in test [2], greater than 100 µM; in test [3] it was greater than 100 µM; in test [4], greater than 87.4 µM; in test [5], 53.6 µM; in test [6], greater than 100 µM.
As for `O=C1CSC2(CCN(CCCN3c4ccccc4Sc4ccc(Cl)cc43)CC2)N1`, the TGI in test [1] was determined as 19.4 µM; in test [2], 16.8 µM; in test [3], 20.8 µM; in test [4], 14.4 µM; in test [5], 40.7 µM; in test [6], 24.4 µM.
In the case of `NC1CCC(c2cc3ccccc3s2)(N2CCCCC2)CC1` (centres undefined), the TGI in test [1] worked out at 3.05 µM; in test [2] it was 3.44 µM; in test [3] it was 3.26 µM; in test [4] it was 2.21 µM; in test [5], 43.7 µM; in test [6], 7.79 µM.
On to `COc1cc2c(cc1OCCCC(=O)Nc1cc(C(=O)Nc3cc(C(=O)NCCCN(C)C)n(C)n3)n(C)n1)N=CC1CCCN1C2=O` (centres undefined), for which the concentration for total growth inhibition (TGI) in test [1] was 34 µM; in test [2] it was 27.7 µM; in test [3], 28.2 µM; in test [4], 37.9 µM; in test [5], greater than 100 µM; in test [6], 31.5 µM.
For the compound `NNC(=O)c1ccccc1NC(=O)/C(=C/c1ccccc1)NC(=O)c1ccccc1`, the TGI in test [1], in test [2], in test [3], in test [4], in test [5] and in test [6] was greater than 100 µM each time.
`CC1CC[C@]2(C(=O)O)CCC3(C)C(=C2[C@H]1C)C=CC1[C@@]2(C)CC[C@H](O)C(C)(C)C2CC[C@]13C` (some centres undefined): the TGI in test [1] was 64.1 µM; in test [2], greater than 100 µM; in test [3], 98.2 µM; in test [4], 73.8 µM; in test [5], greater than 100 µM; in test [6], 73.2 µM.
As to `CCCCCCCCCC[C@@H](O)[C@@H]1CC[C@@H]([C@@H]2CC[C@@H]([C@@H](O)CCCCCCCCCCC(O)CC3=CC(C)OC3=O)O2)O1` (some centres undefined), the TGI in test [1] is greater than 10 µM; in test [2], greater than 10 µM; in test [3], greater than 10 µM; in test [4], greater than 10 µM; in test [5], 6.84 µM; in test [6] it was greater than 10 µM.
`COC(=O)CC1C2CC3C(C2=O)C13` (centres undefined): the TGI in test [1], in test [2], in test [3], in test [4], in test [5] and in test [6] was greater than 100 µM throughout.
Turning to `CC(Nc1cc(Cl)cc(Cl)c1)c1ccncc1` (centres undefined), the TGI in test [1] is 31.6 µM; in test [2], greater than 100 µM; in test [3], 31.8 µM; in test [4] it was 37.1 µM; in test [5], 25 µM; in test [6] it was 54.9 µM.
For `CCCCCCCCOCC1S(=O)(=O)OCCOS1(=O)=O`, the TGI in test [1], in test [2], in test [3], in test [4], in test [5] and in test [6] was greater than 100 µM each time.
`CC1=Nn2c(nc3sc4c(c3c2=O)CCCC4)SC1`: the TGI in test [1], in test [2], in test [3], in test [4], in test [5] and in test [6] was greater than 100 µM throughout.

As usually defined, the TGI is the concentration at which net growth stops. A high value points to lower sensitivity of the cells. The term GI50 denotes the concentration at which growth is held to half of that of the control.
